Tests used:
ATX activity in plasma = molecular target: T1, ATX activity in plasma (Rattus norvegicus, UniProt Q64610); assay: Measurement of ATX activity in plasma (ex vivo), rat single administration test; set-up: species or system male Wistar rat
T1 construct: from tissue; host or cells: plasma of male Wistar rats after oral dosing
Description: [Measurement of ATX Activity in Plasma (Ex Vivo)]
A compound administration solution prepared by wet pulverization in a mixer mill (type: MM400) for 10 min and adjusting to a given concentration with 0.5% aqueous carboxymethylcellulose solution was orally administered to male Wistar rat (5-week-old when used) at 5 mL/kg. Blood samples were collected from the cervical vein over time at 8 to 24 hr after administration. The blood was heparin-treated using a micro blood collection tube Capiject (CJ-AL, TERUMO CORPORATION), and the plasma was separated by centrifugation (4° C., 12,000 rpm, for 2 min), and preserved at −80° C. The rats after blood sampling were euthanized by exsanguination from the caudal vena cava under isoflurane inhalation anesthesia. The measurement of ATX activity in plasma was evaluated using the concentration of choline in the plasma, which was liberated from lysophosphatidylcholine (substrate of ATX) by the lysophospholipase D activity of ATX, as an index. An equal amount of 2× assay buffer (200 mM Tris-HCl pH9.0, 10 mM MgCl2, 1 M NaCl, 0.1% Triton X-100) is added to plasma (12 μL) and reacted at 37° C. for 6 hr. The reaction mixture (10 μL) after reaction for 6 hr and 45 μL of reagent R^1 solution (100 mM Tris-HCl pH 8.0, 0.5 mM TOOS, 10 U/mL peroxidase, 0.01% Triton X-100) were added and blended and absorbance at 550-700 nm was measured and used as a prevalue. As the standard, choline chloride was used. 1 mM choline chloride was diluted with 2× assay buffer up to 7 steps in 2-fold serial dilution, R^1 solution was treated similarly and the absorbance was measured. Furthermore, 15 μL of reagent R^2 solution (100 mM Tris-HCl pH 8.0, 1 mM 4-aminoantipyrine, 10 U/mL choline oxidase, 0.01% Triton X-100) was added, and the mixture was reacted at room temperature for 10 min, and absorbance at 550-700 nm was measured. The choline concentration per reaction time was calculated from the difference between the absorbance after R^2 solution addition and prevalue measured before R^2 addition and used as ATX activity value. inhibitory activity (%)=100×{1−[choline concentration (μM) of test substance administration group/choline concentration (μM) of solvent control group]} <calculating formula>

human recombinant ATX = human recombinant ATX (Homo sapiens, UniProt Q13822); assay: Enzyme inhibition test (choline release from LPC, Amplex UltraRed fluorescence); format: biochemical; details: 200 μM LPC substrate, 1 hr at room temperature, read-out: Experimental Example 1 human ATX IC50
Description: [Enzyme Inhibition Test Method]
A mixture (10 μL) of substrate and a set of choline quantification reagents (200 μM LPC (1-Oleoyl-sn-glycero-3-phosphocholine Sigma #L1881), 25 μM Amplex UltraRed reagent (Invitrogen), 0.1 U/mL Peroxidase (TOYOBO), 1 U/mL Choline oxidase (TOYOBO)), prepared with assay buffer (50 mM Tris (pH 8.0), 140 mM NaCl, 5 mM KCl, 1 mM CaCl2, 1 mM MgCl2, 0.1% BSA (Albumin from bovine serum, SIGMA), 0.0025% Triton X-100), enzyme (0.4 ng/μL human recombinant ATX) (10 μL), compound-containing solution (100 nL) were dispensed to a 384-well plate, incubated at room temperature for 1 hr and the fluorescence (Ex. 525 nm/Em. 598 nm) was measured. As the standard, choline chloride was used. With a blank free of enzyme was taken as inhibitory rate 100%, and a control free of inhibitor as inhibitory rate 0%, the inhibitory rate was calculated, and IC50 value was calculated from the inhibitory activity percentage at each concentration.

With `COc1ccc(-c2cncc(OCc3ccc(OC(F)(F)F)cc3)c2)cc1[C@@H]1C[C@H]1C(=O)O` (relative stereo) [Example 2, trans-2-[2-methoxy-5-(5-{[4-(trifluoromethoxy)benzyl]oxy}pyridin-3-yl)phenyl]cyclopropanecarboxylic Acid] the “Experimental Example 2 Rat single administration test (inhibitory activity (%) 8 hr after 1 mg/kg oral administration)” value (ATX activity in plasma) was 72% and the IC50 (human recombinant ATX) was 9 nM.

For `O=C(O)c1cccc(C2CN(c3cncc(OC[C@H]4CC[C@H](C(F)(F)F)CC4)c3)CCO2)c1` (relative stereo) [Example 13, 3-[4-(5-{[trans-4-(trifluoromethyl)cyclohexyl]methoxy}pyridin-3-yl)morpholin-2-yl]benzoic Acid], the “Experimental Example 2 Rat single administration test (inhibitory activity (%) 8 hr after 1 mg/kg oral administration)” value (ATX activity in plasma) was 71% and the IC50 (human recombinant ATX) was 3 nM.

In the case of `COc1ccc(-c2cnnc(OC[C@H]3CC[C@H](C(F)(F)F)CC3)c2)cc1[C@H]1C[C@@H]1C(=O)O` [Example 1-1, (1S,2S)-2-[2-methoxy-5-(6-{[trans-4-(trifluoromethyl)cyclohexyl]methoxy}pyridazin-4-yl)phenyl]cyclopropanecarboxylic Acid], the “Experimental Example 2 Rat single administration test (inhibitory activity (%) 8 hr after 1 mg/kg oral administration)” value (ATX activity in plasma) is reported as 94% and the IC50 (human recombinant ATX) is reported as 1 nM.

With `COc1ccc(-c2cnnc(OC[C@H]3CC[C@H](C(F)(F)F)CC3)c2)cc1[C@@H]1C[C@H]1C(=O)O` [Example 1-2, (1R,2R)-2-[2-methoxy-5-(6-{[trans-4-(trifluoromethyl)cyclohexyl]methoxy}pyridazin-4-yl)phenyl]cyclopropanecarboxylic Acid] the “Experimental Example 2 Rat single administration test (inhibitory activity (%) 8 hr after 1 mg/kg oral administration)” value (ATX activity in plasma) was 93% and the IC50 (human recombinant ATX) was 5 nM.

`COc1ccc(-c2cncc(CCc3ccc(OC(F)(F)F)cc3)c2)nc1[C@H]1C[C@@H]1C(=O)O` [Example 6, (1S,2S)-2-(5-methoxy-5′-{2-[4-(trifluoromethoxy)phenyl]ethyl}-2,3′-bipyridin-6-yl)cyclopropanecarboxylic Acid] was tested, and the “Experimental Example 2 Rat single administration test (inhibitory activity (%) 8 hr after 1 mg/kg oral administration)” value (ATX activity in plasma) was 71% and the IC50 (human recombinant ATX) was 4 nM.

For `O=C(O)[C@H]1C[C@@H]1c1cccc(-c2cncc(OC[C@H]3CC[C@H](C(F)(F)F)CC3)c2)n1` [Example 8-1, (1S,2S)-2-(5′-{[trans-4-(trifluoromethyl)cyclohexyl]methoxy}-2,3′-bipyridin-6-yl)cyclopropanecarboxylic Acid], the “Experimental Example 2 Rat single administration test (inhibitory activity (%) 8 hr after 1 mg/kg oral administration)” value (ATX activity in plasma) was 92% and the IC50 (human recombinant ATX) was 2 nM.

`O=C(O)[C@@H]1C[C@H]1c1cccc(-c2cncc(OC[C@H]3CC[C@H](C(F)(F)F)CC3)c2)n1` [Example 8-2, (1R,2R)-2-(5′-{[trans-4-(trifluoromethyl)cyclohexyl]methoxy}-2,3′-bipyridin-6-yl)cyclopropanecarboxylic Acid] was tested, and the “Experimental Example 2 Rat single administration test (inhibitory activity (%) 8 hr after 1 mg/kg oral administration)” value (ATX activity in plasma) was 47% and the IC50 (human recombinant ATX) was 20 nM.

With `O=C(O)[C@H]1C[C@@H]1c1cc(-c2cncc(OC[C@H]3CC[C@H](C(F)(F)F)CC3)c2)ccn1` [Example 9-1, (1S,2S)-2-(5-{[trans-4-(trifluoromethyl)cyclohexyl]methoxy}-3,4′-bipyridin-2′-yl)cyclopropanecarboxylic Acid] the “Experimental Example 2 Rat single administration test (inhibitory activity (%) 8 hr after 1 mg/kg oral administration)” value (ATX activity in plasma) was 94% and the IC50 (human recombinant ATX) was 2 nM.

With `O=C(O)[C@@H]1C[C@H]1c1cc(-c2cncc(OC[C@H]3CC[C@H](C(F)(F)F)CC3)c2)ccn1` [Example 9-2, (1R,2R)-2-(5-{[trans-4-(trifluoromethyl)cyclohexyl]methoxy}-3,4′-bipyridin-2′-yl)cyclopropanecarboxylic Acid] the “Experimental Example 2 Rat single administration test (inhibitory activity (%) 8 hr after 1 mg/kg oral administration)” value (ATX activity in plasma) was 94% and the IC50 (human recombinant ATX) was 3 nM.

For `O=C(O)c1ccc2c(c1)CCN2c1cncc(OC[C@H]2CC[C@H](C(F)(F)F)CC2)c1` [Example 12, 1-(5-{[trans-4-(trifluoromethyl)cyclohexyl]methoxy}pyridin-3-yl)-2,3-dihydro-1H-indole-5-carboxylic Acid], the “Experimental Example 2 Rat single administration test (inhibitory activity (%) 8 hr after 1 mg/kg oral administration)” value (ATX activity in plasma) was 76% and the IC50 (human recombinant ATX) was 1 nM.

`O=C(O)CC[C@H]1CN(c2cncc(OCc3ccc(OC(F)(F)F)cc3)c2)CCO1` [Example 14, 3-[(2S)-4-(5-{[4-(trifluoromethoxy)benzyl]oxy}pyridin-3-yl)morpholin-2-yl]propanoic Acid] was tested, and the “Experimental Example 2 Rat single administration test (inhibitory activity (%) 8 hr after 1 mg/kg oral administration)” value (ATX activity in plasma) was 92% and the IC50 (human recombinant ATX) was 12 nM.

In the case of `O=C(O)CC[C@H]1CN(c2cncc(OCc3ccc(C(F)(F)F)cc3)c2)CCO1` [Example 15, 3-[(2S)-4-(5-{[4-(trifluoromethyl)benzyl]oxy}pyridin-3-yl)morpholin-2-yl]propanoic Acid], the “Experimental Example 2 Rat single administration test (inhibitory activity (%) 8 hr after 1 mg/kg oral administration)” value (ATX activity in plasma) is reported as 75% and the IC50 (human recombinant ATX) is reported as 42 nM.

An IC50 (human recombinant ATX) of 104 nM was found for `O=C(O)CC[C@H]1CN(c2cncc(OCC3CCCCC3)c2)CCO1` [Example 71] in this work.

An IC50 (human recombinant ATX) of 8 nM was found for `O=C(O)CC[C@H]1CN(c2cncc(OCC3CCC4(CCC4)CC3)c2)CCO1` [Example 72] in this work.

An IC50 (human recombinant ATX) of 9 nM was found for `O=C(O)CC[C@H]1CN(c2cncc(OCC3CCC4(CC3)CC4)c2)CCO1` [Example 73] in this work.

An IC50 (human recombinant ATX) of 10 nM was found for `CC1(C)CCC(COc2cncc(N3CCO[C@@H](CCC(=O)O)C3)c2)CC1` [Example 74] in this work.

An IC50 (human recombinant ATX) of 68 nM was found for `O=C(O)CC[C@H]1CN(c2cncc(OCC3CCC(F)(F)CC3)c2)CCO1` [Example 75] in this work.

An IC50 (human recombinant ATX) of 78 nM was found for `O=C(O)CC[C@H]1CN(c2cncc(OC[C@H]3CC[C@@H](C(F)(F)F)CC3)c2)CCO1` [Example 76] in this work.

An IC50 (human recombinant ATX) of 381 nM was found for `O=C(O)CC[C@H]1CN(c2cncc(OCc3ccc(F)cc3)c2)CCO1` [Example 77] in this work.

An IC50 (human recombinant ATX) of 91 nM was found for `O=C(O)CC[C@H]1CN(c2cncc(OCc3ccc(Cl)cc3)c2)CCO1` [Example 78] in this work.

An IC50 (human recombinant ATX) of 189 nM was found for `O=C(O)CC[C@H]1CN(c2cncc(OCc3cccc(Cl)c3)c2)CCO1` [Example 79] in this work.

An IC50 (human recombinant ATX) of 493 nM was found for `O=C(O)CC[C@H]1CN(c2cncc(OCc3ccccc3Cl)c2)CCO1` [Example 80] in this work.

An IC50 (human recombinant ATX) of 12 nM was found for `O=C(O)CC[C@H]1CN(c2cncc(OCc3ccc(SC(F)(F)F)cc3)c2)CCO1` [Example 81] in this work.

An IC50 (human recombinant ATX) of 29 nM was found for `O=C(O)CC[C@H]1CN(c2cncc(OCc3ccc(OC(F)(F)F)c(Cl)c3)c2)CCO1` [Example 85] in this work.

An IC50 (human recombinant ATX) of 129 nM was found for `O=C(O)CC[C@H]1CN(c2cncc(COc3ccc(C(F)(F)F)cc3)c2)CCO1` [Example 86] in this work.

An IC50 (human recombinant ATX) of 133 nM was found for `C[C@H]1CN(c2cncc(OCc3ccc(OC(F)(F)F)cc3)c2)C[C@H](CCC(=O)O)O1` [Example 88] in this work.

An IC50 (human recombinant ATX) of 9 nM was found for `CC1(C(=O)O)CC1[C@H]1CN(c2cnnc(OC[C@H]3CC[C@H](C(F)(F)F)CC3)c2)CCO1` (stereo partly shown) [Example 89] in this work.

An IC50 (human recombinant ATX) of 419 nM was found for `O=C(O)C1CN(c2cncc(OCc3ccc(OC(F)(F)F)cc3)c2)CCO1` (stereo not shown) [Example 90] in this work.

An IC50 (human recombinant ATX) of 24 nM was found for `O=C(O)CCC1CCCN(c2cncc(OCc3ccc(OC(F)(F)F)cc3)c2)C1` (stereo not shown) [Example 91] in this work.

An IC50 (human recombinant ATX) of 32 nM was found for `O=C(O)CCCC1CN(c2cncc(OCc3ccc(OC(F)(F)F)cc3)c2)CCO1` (stereo not shown) [Example 94] in this work.

An IC50 (human recombinant ATX) of 36 nM was found for `O=C(O)CCCC1COCCN1c1cncc(OCc2ccc(OC(F)(F)F)cc2)c1` (stereo not shown) [Example 95] in this work.

An IC50 (human recombinant ATX) of 19 nM was found for `O=C(O)COC[C@@H]1CCCN1c1cncc(OCc2ccc(OC(F)(F)F)cc2)c1` [Example 96] in this work.

An IC50 (human recombinant ATX) of 378 nM was found for `O=C(O)CC1CCN(c2cncc(OCc3ccc(OC(F)(F)F)cc3)c2)C1` (stereo not shown) [Example 97] in this work.

An IC50 (human recombinant ATX) of 120 nM was found for `O=C(O)CCC1CCN(c2cncc(OCc3ccc(OC(F)(F)F)cc3)c2)C1` (stereo not shown) [Example 98] in this work.

An IC50 (human recombinant ATX) of 50 nM was found for `O=C(O)CCCC1CCN(c2cncc(OCc3ccc(OC(F)(F)F)cc3)c2)C1` (stereo not shown) [Example 99] in this work.

An IC50 (human recombinant ATX) of 204 nM was found for `O=C(O)CCC1CCCN1c1cncc(OCc2ccc(OC(F)(F)F)cc2)c1` (stereo not shown) [Example 100] in this work.

An IC50 (human recombinant ATX) of 113 nM was found for `O=C(O)/C=C/C1CCCN1c1cncc(OCc2ccc(OC(F)(F)F)cc2)c1` (stereo not shown) [Example 101] in this work.
